Data reported in US20240342292A1, “Compounds for the Degradation of EGFR Kinase” (BeiGene Switzerland GmbH, priority 2021, published 2024).

Assays:
Del19/T790M/C797S EGFR = assay: EGFR degradation HTRF assay in H1975-clone #28 (DTC) cells; format: cell-based; settings: H1975 # 28 DTC (Del19/T790M/C797S), 16h treatment; for DC50: HTRF; for Dmax (%): maximum percentage of degradation
Method in brief: (§1)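 Each homozygous H1975 clone was dosed for 16 h at 37 °C with an 8-dose, 5-fold series (top 10 uM, 0.2% DMSO). An HTRF antibody pair then measured EGFR in lysates, and a sigmoidal fit of percent inhibition gave DC50.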

L858R/T790M/C797S EGFR = target: T1, L858R/T790M/C797S EGFR (Homo sapiens, UniProt P00533, C797S/L858R/T790M); assay: EGFR degradation HTRF assay in H1975-clone #25 (LTC) cells; format: cell-based; settings: 16h treatment; for DC50: H1975 # 25-LTC (L858R/T790M/C797S), HTRF; for Dmax: NCI-H1975, H1975 # 25-LTC (L858R/T790M/C797S), maximum percentage of degradation
T1 construct: expressed in transfected cells; host or cells: H1975 clone #25 (lentiviral over-expression, endogenous EGFR knocked out by sgRNA)
T1 sequence (P00533 25-1210 T790M/C797S/L858R): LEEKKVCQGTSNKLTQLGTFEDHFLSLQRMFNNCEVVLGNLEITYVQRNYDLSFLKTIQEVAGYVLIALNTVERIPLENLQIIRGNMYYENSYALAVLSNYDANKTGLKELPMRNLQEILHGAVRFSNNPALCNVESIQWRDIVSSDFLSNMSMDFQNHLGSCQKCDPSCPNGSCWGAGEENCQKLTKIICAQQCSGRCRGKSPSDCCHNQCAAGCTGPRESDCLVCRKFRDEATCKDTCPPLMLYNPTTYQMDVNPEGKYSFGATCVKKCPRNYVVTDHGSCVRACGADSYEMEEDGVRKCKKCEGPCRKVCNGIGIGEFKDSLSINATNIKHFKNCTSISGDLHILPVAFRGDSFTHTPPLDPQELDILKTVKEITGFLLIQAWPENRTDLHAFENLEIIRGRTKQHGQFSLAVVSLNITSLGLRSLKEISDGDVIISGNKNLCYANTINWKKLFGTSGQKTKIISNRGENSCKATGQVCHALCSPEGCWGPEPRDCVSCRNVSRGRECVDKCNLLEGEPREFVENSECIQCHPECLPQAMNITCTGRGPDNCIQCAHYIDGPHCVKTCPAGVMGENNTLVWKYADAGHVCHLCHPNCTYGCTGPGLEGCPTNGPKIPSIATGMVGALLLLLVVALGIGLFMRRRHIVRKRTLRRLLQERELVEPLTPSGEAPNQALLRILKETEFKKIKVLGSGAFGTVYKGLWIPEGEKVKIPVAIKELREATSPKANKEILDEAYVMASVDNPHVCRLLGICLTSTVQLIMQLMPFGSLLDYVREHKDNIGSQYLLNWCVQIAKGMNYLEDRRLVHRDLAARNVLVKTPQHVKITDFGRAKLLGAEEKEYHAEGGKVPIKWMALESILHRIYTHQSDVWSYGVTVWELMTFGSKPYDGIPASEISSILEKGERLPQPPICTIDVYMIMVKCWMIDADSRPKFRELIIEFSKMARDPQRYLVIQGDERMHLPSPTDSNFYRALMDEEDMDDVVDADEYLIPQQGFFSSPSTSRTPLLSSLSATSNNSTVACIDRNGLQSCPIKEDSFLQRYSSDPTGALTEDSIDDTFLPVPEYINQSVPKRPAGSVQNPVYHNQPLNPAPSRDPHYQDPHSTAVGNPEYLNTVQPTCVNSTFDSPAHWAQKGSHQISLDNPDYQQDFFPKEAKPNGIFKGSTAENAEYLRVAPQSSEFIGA
Method in brief: as §1

SMILES	DC50 (Del19/T790M/C797S EGFR)	DC50 (L858R/T790M/C797S EGFR)	Dmax (L858R/T790M/C797S EGFR)	Dmax (%) (Del19/T790M/C797S EGFR)
Cc1cc2cc(n1)-c1cnn(C)c1OCCC[C@@H](C)CN1/C(=N/C2=O)Nc2ccc(C(=O)N(C)CCC3CCN(c4cc(F)c([C@H]5CCC(=O)NC5=O)c(F)c4)CC3)cc21 [Example 279, (R,E)-N-(2-(1-(4-((R)-2,6-dioxopiperidin-3-yl)-3,5-difluorophenyl)piperidin-4-yl)ethyl)-N,1^1,2^6,7-tetramethyl-3-oxo-5^2,5^3-dihydro-1^1H,5^1H-11-oxa-4-aza-5(2,1)-benzo[d]imidazola-2(2,4)-pyridina-1(4,5)-pyrazolacycloundecaphane-5^6-carboxamide]	0.75 nM	1.33 nM	83%	82.08%
Cc1cc2cc(n1)-c1cnn(C)c1OCCC[C@@H](C)CN1/C(=N/C2=O)Nc2ccc(C(=O)N(C)CCN3CCN(c4cc(F)c([C@H]5CCC(=O)NC5=O)c(F)c4)CC3)cc21 [Example 280, (R,E)-N-(2-(4-(4-((R)-2,6-dioxopiperidin-3-yl)-3,5-difluorophenyl)piperazin-1-yl)ethyl)-N,1^1,2^6,7-tetramethyl-3-oxo-5^2,5^3-dihydro-1^1H,5^1H-11-oxa-4-aza-5(2,1)-benzo[d]imidazola-2(2,4)-pyridina-1(4,5)-pyrazolacycloundecaphane-5^6-carboxyamide]	0.657 nM	0.44 nM	88.5%	77.24%
CCN(CCN1CCN(c2cc(F)c([C@H]3CCC(=O)NC3=O)c(F)c2)CC1)C(=O)c1ccc2c(c1)N1C[C@H](C)CCCOc3c(cnn3C)-c3cc(cc(C)n3)C(=O)/N=C/1N2 [Example 281, (R,E)-N-(2-(4-(4-((R)-2,6-dioxopiperidin-3-yl)-3,5-difluorophenyl)piperazin-1-yl)ethyl)-N-ethyl-1′,2^6,7-trimethyl-3-oxo-5^2,5^3-dihydro-1^1H,5^1H-11-oxa-4-aza-5(2,1)-benzo[d]imidazola-2(2,4)-pyridina-1(4,5)-pyrazolacycloundecaphane-5^6-carboxamide]	0.501 nM	0.411 nM	90.4%	75.01%
Cc1cc2cc(n1)-c1cnn(C)c1OCCC[C@@H](C)CN1/C(=N/C2=O)Nc2ccc(C(=O)N(CCN3CCN(c4cc(F)c([C@H]5CCC(=O)NC5=O)c(F)c4)CC3)C(C)C)cc21 [Example 282, (R,E)-N-(2-(4-(4-((R)-2,6-dioxopiperidin-3-yl)-3,5-difluorophenyl)piperazin-1-yl)ethyl)-N-isopropyl-1^1,2^6,7-trimethyl-3-oxo-5^2,5^3-dihydro-1^1H,5^1H-11-oxa-4-aza-5(2,1)-benzo[d]imidazola-2(2,4)-pyridina-1(4,5)-pyrazolacycloundecaphane-5^6-carboxamide]	0.657 nM	0.752 nM	82.9%	77.76%
Cc1cc2cc(n1)-c1cnn(C)c1OCCC[C@@H](C)CN1/C(=N/C2=O)Nc2ccc(C(=O)N(CCN3CCC(c4cc(F)c([C@H]5CCC(=O)NC5=O)c(F)c4)CC3)C(C)C)cc21 [Example 283, (R,E)-N-(2-(4-(4-((R)-2,6-dioxopiperidin-3-yl)-3,5-difluorophenyl)piperidin-1-yl)ethyl)-N-isopropyl-1^1,2^6,7-trimethyl-3-oxo-5^2,5^3-dihydro-1^1H,5^1H-11-oxa-4-aza-5(2,1)-benzo[d]imidazola-2(2,4)-pyridina-1(4,5)-pyrazolacycloundecaphane-5^6-carboxamide]	0.617 nM	0.494 nM	80.2%	72.52%
Cc1cc2cc(n1)-c1cnn(C)c1OCCC[C@@H](C)CN1/C(=N/C2=O)Nc2ccc(C(=O)N(C)C3CCN(CCC4CN(c5cc(F)c([C@H]6CCC(=O)NC6=O)c(F)c5)C4)CC3)cc21 [Example 285, (R,E)-N-(1-(2-(1-(4-((R)-2,6-dioxopiperidin-3-yl)-3,5-difluorophenyl)azetidin-3-yl)ethyl)piperidin-4-yl)-N,1^1,2^6,7-tetramethyl-3-oxo-5^2,5^3-dihydro-1^1H,5^1H-11-oxa-4-aza-5(2,1)-benzo[d]imidazola-2(2,4)-pyridina-1(4,5)-pyrazolacycloundecaphane-5^6-carboxamide]	0.667 nM	0.651 nM	89.8%	77.98%

Continued, in another order:

DC50 (Del19/T790M/C797S EGFR)	DC50 (L858R/T790M/C797S EGFR)	Dmax (L858R/T790M/C797S EGFR)	SMILES	Dmax (%) (Del19/T790M/C797S EGFR)
0.652 nM	0.45 nM	91.2%	Cc1cc2cc(n1)-c1cnn(C)c1OCCC[C@@H](C)CN1/C(=N/C2=O)Nc2ccc(C(=O)N(C)C3CCN(CC4CN(c5cc(F)c([C@H]6CCC(=O)NC6=O)c(F)c5)C4)CC3)cc21 [Example 286, (R,E)-N-(1-((1-(4-((R)-2,6-dioxopiperidin-3-yl)-3,5-difluorophenyl)azetidin-3-yl)methyl)piperidin-4-yl)-N,1^1,2^6,7-tetramethyl-3-oxo-5^2,5^3-dihydro-1^1H,5^1H-11-oxa-4-aza-5(2,1)-benzo[d]imidazola-2(2,4)-pyridina-1(4,5)-pyrazolacycloundecaphane-5^6-carboxamide]	72.5%
0.918 nM	0.581 nM	93.5%	Cc1cc2cc(n1)-c1cnn(C)c1OCCC[C@@H](C)CN1/C(=N/C2=O)Nc2ccc(C(=O)N(C)C3CCN(CC4CCN(c5cc(F)c([C@H]6CCC(=O)NC6=O)c(F)c5)CC4)CC3)cc21 [Example 287, (R,E)-N-(1-((1-(4-((R)-2,6-dioxopiperidin-3-yl)-3,5-difluorophenyl)piperidin-4-yl)methyl)piperidin-4-yl)-N,1^1,2^6,7-tetramethyl-3-oxo-5^2,5^3-dihydro-1^1H,5^1H-11-oxa-4-aza-5(2,1)-benzo[d]imidazola-2(2.4)-pyridina-1(4,5)-pyrazolacycloundecaphane-5^6-carboxamide]	88.53%
0.488 nM	0.662 nM	92.8%	CCN(C(=O)c1ccc2c(c1)N1C[C@H](C)CCCOc3c(cnn3C)-c3cc(cc(C)n3)C(=O)/N=C/1N2)C1CCN(C2CCN(c3cc(F)c([C@H]4CCC(=O)NC4=O)c(F)c3)CC2)CC1 [Example 288, (R,E)-N-(1′-(4-((R)-2,6-dioxopiperidin-3-yl)-3,5-difluorophenyl)-[1,4′-bipiperidin]-4-yl)-N-ethyl-1^1, 2^6,7-trimethyl-3-oxo-5^2,5^3-dihydro-1^1H,5^1H-11-oxa-4-aza-5(2,1)-benzo[d]imidazola-2(2,4)-pyridina-1(4,5)-pyrazolacycloundecaphane-5^6-carboxamide]	79.62%
0.624 nM	0.454 nM	93.8%	Cc1cc2cc(n1)-c1cnn(C)c1OCCC[C@@H](C)CN1/C(=N/C2=O)Nc2ccc(C(=O)N(C)C3CCN(C4CCN(c5cc(F)c([C@H]6CCC(=O)NC6=O)c(F)c5)CC4)CC3)cc21 [Example 289, (R,E)-N-(1′-(4-((R)-2,6-dioxopiperidin-3-yl)-3,5-difluorophenyl)-[1,4′-bipiperidin]-4-yl)-N,1^1,2^6,7-tetramethyl-3-oxo-5^2,5^3-dihydro-1^1H,5^1H-11-oxa-4-aza-5(2,1)-benzo[d]imidazola-2(2,4)-pyridina-1(4,5)-pyrazolacycloundecaphane-5^6-carboxamide]	91.07%
0.64 nM	0.644 nM	89.1%	Cc1cc2cc(n1)-c1cnn(C)c1OCCC[C@@H](C)CN1/C(=N/C2=O)Nc2ccc(C(=O)N(C)C3CCN(C4CN(c5cc(F)c([C@H]6CCC(=O)NC6=O)c(F)c5)C4)CC3)cc21 [Example 290, (R,E)-N-(1-(1-(4-((R)-2,6-dioxopiperidin-3-yl)-3,5-difluorophenyl)azetidin-3-yl)piperidin-4-yl)-N,1′,2^6,7-tetramethyl-3-oxo-5^2,5′-dihydro-1^1H,5^1H-11-oxa-4-aza-5(2,1)-benzo[d]imidazola-2(2,4)-pyridina-1(4,5)-pyrazolacycloundecaphane-5^6-carboxamide]	80.73%
0.513 nM	0.63 nM	79%	Cc1cc2cc(n1)-c1cnn(C)c1OCCC[C@@H](C)CN1/C(=N/C2=O)Nc2ccc(C(=O)N(C)[C@@H]3CCN(CCc4cc(F)c([C@H]5CCC(=O)NC5=O)c(F)c4)C3)cc21 [Example 291, (R,E)-N—((R)-1-(4-((R)-2,6-dioxopiperidin-3-yl)-3,5-difluorophenethyl)pyrrolidin-3-yl)-N,1^1,2^6,7-tetramethyl-3-oxo-5^2,5^3-dihydro-1^1H,5^1H-11-oxa-4-aza-5(2,1)-benzo[d]imidazola-2(2,4)-pyridina-1(4,5)-pyrazolacycloundecaphane-5^6-carboxamide]	72.04%
0.608 nM	0.514 nM	89.4%	Cc1cc2cc(n1)-c1cnn(C)c1OCCC[C@@H](C)CN1/C(=N/C2=O)Nc2ccc(C(=O)N(C)[C@@H]3CCCN(CCc4cc(F)c([C@H]5CCC(=O)NC5=O)c(F)c4)CC3)cc21 [Example 292, (R,E)-N—((R)-1-(4-((R)-2,6-dioxopiperidin-3-yl)-3,5-difluorophenethyl)azepan-4-yl)-N,1^1,2^6,7-tetra methyl-3-oxo-5^2,5^3-dihydro-1^1H,5^1H-11-oxa-4-aza-5(2,1)-benzo[d]imidazola-2(2,4)-pyridina-1(4,5)-pyrazolacycloundecaphane-5^6-carboxamide]	85.48%
